Measurements reported in patent US6462086B1, “Non-malignant disease treatment with Ras antagonists” (Ramot University Authority for Applied Research and …, priority 1999, dated 2002).
“Also recorded” adds a separate entry of the source.

Experiments:
MRL/lpr mice [1] = test: Grip strength test (hang time) in MRL mice; type: in vivo, mouse
Procedure: The four groups of mice were examined weekly using the grip strength test. Muscle strength was measured by the number of seconds the mouse was able to hang suspended on a stationary bar. A neurologically normal mouse is able to remain suspended (hang time) for 30 seconds or longer (17).

human HSC = test: PDGF-induced migration of human hepatic stellate cells (modified Boyden chamber); type: cell-based; conditions: PDGF-BB 10 ng/ml, 24 h FTS, read-out: FTS concentration inhibiting (50%) the PDGF-stimulated cell migration
Procedure: Human HSCs were isolated from wedge sections of normal human liver unsuitable for transplantation as previously reported (6, 7). Briefly, after a combined digestion with collagenase/pronase, HSCs were separated from other liver nonparenchymal cells by ultracentrifugation over gradients of stractan (Cellsep™ isotonic solution, Larex Inc., St. Paul, Minn.). Extensive characterization was performed as described in (7). Cells were cultured on plastic culture dishes (Falcon, Becton Dickinson, Lincoln Park, N.J.) in Iscove's modified Dulbecco's medium supplemented with 0.6 U/ml insulin, 2.0 mmol/L glutamine, 0.1 mmol/L nonessential amino acids, 1.0 mmol/L sodium pyruvate, antibiotic antifungal solution (all provided by Gibco Laboratories, Grand Island, N.Y.) and 20% fetal bovine serum (Imperial Laboratories, Andover, U.K.). Experiments described in this study were performed on cells between third and fifth serial passages (1:3 split ratio) using three independent cell lines.
Cell migration was carried out as previously described (9, 10). […] After fixing in 96% methanol and staining with Harris' hematoxylin solution, cells that migrated to the underside of the filters were quantitated as the mean number of cells in 10 high-power fields (HPF). […] Possible cytotoxic effects were monitored by the trypan blue exclusion test.

[2] = test system: splenocytes from ICR mice; type: cell-based, mouse; conditions: 10 and 50 μM FTS
Procedure: An examination was made as to whether the effect of FTS on Ras levels was of functional importance in splenocytes prepared from 2 ICR mice. Stimulation of ^3H-thymidine incorporation into DNA was used as measure of splenocyte proliferation in the presence of lipopolysaccharide (LPS) or concanavalin A (ConA), and in the presence of 0, 10 and 50 μM FTS. The methods used are detailed below. […] Also, FTS had no effect on basal ^3H-thymidine incorporation into DNA. The concentrations of FTS at which inhibition of lymphocyte cell growth were observed reflect expected levels of the drug when given in animals at doses of 5-10 mg/kg.
Mice were killed by cervical dislocation and spleens removed with sterile precautions and placed in disposable plastic Petri dishes containing Dulbecco's phosphate-buffered saline (DPBS). […] Cells from each microculture were harvested on fibroglass filters with multiharvester and counted in liquid scintillation β counter.
Mitogens and antigens were diluted to appropriate concentrations in the incubation medium and added to the wells at the beginning of incubation period to give a final concentration of 1.0 μg/ml lipopolysaccharide (LPS), 1.0 μg/ml Concanavalin A (ConA) or 10 μg/ml beta2-Glycoprotein I (beta2-GPI). Spontaneous proliferation (without mitogen or antigen) was also assessed. […]
The results are expressed as the mean value of stimulation index per group. […]

[3] = test system: lymphocytes from draining lymph nodes of EAE SJL mice; test: Ex vivo proliferative responses of lymph node lymphocytes from FTS-treated EAE mice; type: in vivo, mouse; conditions: for proliferative response of lymphocytes (cpm): FTS 5 mg/Kg i.p. daily, day 10
MRL/lpr mice [4] = test: Disease activity in MRL/lpr mice (proteinuria, lymphadenopathy, grip strength; Example 4); type: in vivo, mouse
Procedure: One of the important measures of disease activity in MRL/lpr mice is proteinuria. Levels of proteinura were measured weekly by means of dip-sticks in MRL/lpr and Mrl/++ mice treated daily with FTS or with vehicle alone. Significant proteinuria developed in the MRL/lpr treated with vehicle compared to the MRL/++ groups. […] Other systemic measures of disease activity including lymphadenopathy and lymphocyte proliferation were normalized in FTS treated MRL/lpr mice (not shown).

[5] = FTS-treated mice compared to controls

## CC(C)=CCC/C(C)=C/CC/C(C)=C/CSc1ccccc1C(=O)O [FTS, farnesyl thiosalicylic acid]
MRL/lpr mice [1]; MRL/++ mice
  grip strength (hang time on a horizontal bar): trend for FTS to impair performance
MRL/lpr mice [1]; MRL/lpr mice, 12-17 weeks of age
  grip strength (hang time on a horizontal bar): significantly impaired in this test from week 14 compared to the FTS-treated group; also recorded: normalized
Human HSC
  IC50: 2000 to 2500 nM
[2]
  LPS and ConA induced splenocyte proliferation (stimulation index): significant reduction
  basal 3H-thymidine incorporation into DNA: no effect
[3]; [5]
  change of reactivity to ConA: no change of reactivity
  decrease in the reactivity of lymphocytes to GMBP: 83%
  decrease in the reactivity of lymphocytes to PLP-peptide: 72%
  decrease of the reactivity to PPD and to LPS: 50-57%
[3]; antigen: GMBP
  proliferative response of lymphocytes (cpm): 7,864 ± 636 cpm
[3]; antigen: GMBP, FTS-treated EAE mice
  stimulation index (S.I.): 1.8
[3]; antigen: PLP
  proliferative response of lymphocytes (cpm): 8,901 ± 2,014 cpm
[3]; antigen: PLP, FTS-treated EAE mice
  stimulation index (S.I.): 2.1
[3]; antigen: PPD
  proliferative response of lymphocytes (cpm): 27,342 ± 3,627 cpm
[3]; antigen: PPD, FTS-treated EAE mice
  stimulation index (S.I.): 6.4
[3]; antigen: none
  proliferative response of lymphocytes (cpm): 4,266 ± 508 cpm
[3]; ex vivo, FTS-treated EAE mice
  reduction in response to myelin specific antigens: > 78%
[3]; mitogen: ConA
  proliferative response of lymphocytes (cpm): 86,870 ± 7,483 cpm
[3]; mitogen: ConA, FTS-treated EAE mice
  stimulation index (S.I.): 20.4
[3]; mitogen: LPS
  proliferative response of lymphocytes (cpm): 45,196 ± 4,246 cpm
[3]; mitogen: LPS, FTS-treated EAE mice
  stimulation index (S.I.): 10.6
MRL/lpr mice [4]; MRL/lpr mice
  lymphadenopathy and lymphocyte proliferation: normalized
  weakness as measured by grip strength on a horizontal bar: normalized by FTS treatment
MRL/lpr mice [4]; MRL/lpr mice treated daily
  proteinuria (dip-sticks, FIG. 15): did not develop significant proteinuria
